From patent publication US20090280160A1, “PHENYLEPHRINE PHARMACEUTICAL FORMULATIONS AND COMPOSITIONS FOR TRANSMUCOSAL ABSORPTION” (Schering-Plough Healthcare Products, Inc., priority 2007, published 2009)
“Also recorded” adds a separate entry of the source.

Key:
[1] = cited from earlier work
[2] = target: T1, α1a adrenoreceptor (Homo sapiens, UniProt P35348); experiment: Cellular calcium flux (FLIPR), α1a expressing CHO cells; type: cell-based; settings: α1a expressing CHO cells
T1 construct: expressed in transfected cells
T1 sequence (P35348 1-466): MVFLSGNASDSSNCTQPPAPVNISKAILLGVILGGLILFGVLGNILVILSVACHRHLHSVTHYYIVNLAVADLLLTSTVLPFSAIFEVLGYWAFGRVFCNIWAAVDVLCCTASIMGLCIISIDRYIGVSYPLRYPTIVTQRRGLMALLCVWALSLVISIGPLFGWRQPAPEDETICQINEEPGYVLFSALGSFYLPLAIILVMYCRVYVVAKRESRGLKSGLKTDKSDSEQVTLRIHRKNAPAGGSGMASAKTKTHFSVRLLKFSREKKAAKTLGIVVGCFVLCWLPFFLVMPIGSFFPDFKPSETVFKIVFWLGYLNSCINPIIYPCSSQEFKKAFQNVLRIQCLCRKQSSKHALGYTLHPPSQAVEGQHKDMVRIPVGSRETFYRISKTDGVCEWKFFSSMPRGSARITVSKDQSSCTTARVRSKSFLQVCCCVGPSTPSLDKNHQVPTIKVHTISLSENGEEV
Method: (§1) The affinity and activity of phenylephrine metabolites were evaluated in human recombinant α1 and α2 adrenoreceptor binding and activity assays. […] Affinity of the metabolites was determined by receptor binding assays. Functional activity of the metabolites was assessed using an [^35S]-GTPγS binding exchange assay for the α2 receptor subtypes and a cell-based calcium flux response for the α1 receptor subtypes.
(§2) Intracellular calcium levels were measured using a fluorometric imaging plate reader (FLIPR). Cells expressing α1 adrenoreceptors were cultured overnight at 15,000 cells/well in 96 well black-wall clear bottom plates (Packard). Adherent cells were loaded for 1 hour at 37° C. using the FLIPR Calcium Plus Assay Kit (Molecular Probes, Eugene, Oreg.), which included 2.5 mM probenecid (Sigma). Compounds (at 10 mM in 100% DMSO) were diluted in diluting buffer (HBSS, 20 mM HEPES, 2.5 mM probenecid, 0.5% BSA, pH 7.4). A titration of norepinephrine was included in every experiment and norepinephrine (at 1 μM) was also used as a plate standard on each assay plate. Cells were maintained at 37° C. throughout all calcium measurements. Fluorescence data was collected at 1 second interval for 60 seconds, followed by collection at 2 second intervals for 30 seconds. Background fluorescence was quantitated in wells containing cells with no additions and was subtracted from all experimental samples. All conditions were done in quadruplicate. Non-linear regression analysis using GraphPad Prism was used to calculate EC50 values.
(§3) Each metabolite was evaluated in each assay in at least 2 independent experiments and a representative assay of each metabolite/assay combination is shown.

[3] = target: T2, α1b adrenoreceptor (Homo sapiens, UniProt P35368); experiment: Cellular calcium flux (FLIPR), α1b expressing CHO cells; type: cell-based; settings: α1b expressing CHO cells
T2 construct: expressed in transfected cells
T2 sequence (P35368 1-520): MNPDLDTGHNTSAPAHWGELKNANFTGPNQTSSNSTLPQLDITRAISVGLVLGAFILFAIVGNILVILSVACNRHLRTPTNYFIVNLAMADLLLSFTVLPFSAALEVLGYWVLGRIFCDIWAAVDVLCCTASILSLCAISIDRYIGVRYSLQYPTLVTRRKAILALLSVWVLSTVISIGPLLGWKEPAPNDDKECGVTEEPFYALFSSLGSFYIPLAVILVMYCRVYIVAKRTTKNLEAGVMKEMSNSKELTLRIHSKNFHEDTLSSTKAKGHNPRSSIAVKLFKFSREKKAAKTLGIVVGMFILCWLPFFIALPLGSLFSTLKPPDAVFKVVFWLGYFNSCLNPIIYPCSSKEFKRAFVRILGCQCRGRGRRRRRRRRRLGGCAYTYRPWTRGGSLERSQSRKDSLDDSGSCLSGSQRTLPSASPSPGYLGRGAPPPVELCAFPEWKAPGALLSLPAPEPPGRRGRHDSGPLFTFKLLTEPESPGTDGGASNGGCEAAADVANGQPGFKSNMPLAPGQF
Method: as §1, §2, §3

[4] = target: T1, α1a adrenoreceptor; experiment: Competition binding, [3H]-prazosin, α1a CHO cell membranes; settings: for inhibition of 3H-prazosin binding, α1a (in words): CHO cell membranes
[5] = target: T2, α1b adrenoreceptor; experiment: Competition binding, [3H]-prazosin, α1b CHO cell membranes; settings: for inhibition of 3H-prazosin binding, α1b (in words): CHO cell membranes
Method: as §1
(§4) Competition Binding Assays
(§5) Competition binding assays for the α2 adrenoreceptors were performed using 20 μg membrane protein per well in binding buffer (75 mM Tris-HCl pH 7.4, 12.5 mM MgCl2, […] EDTA, 0.2% bovine serum albumin). […] Binding was terminated by rapid filtration through GF/C unifilter plates, presoaked with 0.3% polyethylenimine, with five washes with 0.5 ml cold 50 mM Tris-HCl ph 7.4, using a Packard Filtermate Harvester. After drying, bound radioactivity was determined by liquid scintillation counting (Packard TopCount) with Microscint 20, 50 μl/well. Binding data were analyzed using GraphPad Prism.
as §3

[6] = target: T3, α2b adrenoreceptor (Homo sapiens, UniProt P18089); experiment: [35S]-GTPγS binding exchange, α2b CHO cell membranes; type: biochemical; settings: for stimulation of [35S]-GTPγS binding, α2b (in words): CHO cell membranes
T3 construct: expressed in transfected cells; host or cells: CHO (Chinese hamster ovary) cells, membranes
T3 sequence (P18089 1-450): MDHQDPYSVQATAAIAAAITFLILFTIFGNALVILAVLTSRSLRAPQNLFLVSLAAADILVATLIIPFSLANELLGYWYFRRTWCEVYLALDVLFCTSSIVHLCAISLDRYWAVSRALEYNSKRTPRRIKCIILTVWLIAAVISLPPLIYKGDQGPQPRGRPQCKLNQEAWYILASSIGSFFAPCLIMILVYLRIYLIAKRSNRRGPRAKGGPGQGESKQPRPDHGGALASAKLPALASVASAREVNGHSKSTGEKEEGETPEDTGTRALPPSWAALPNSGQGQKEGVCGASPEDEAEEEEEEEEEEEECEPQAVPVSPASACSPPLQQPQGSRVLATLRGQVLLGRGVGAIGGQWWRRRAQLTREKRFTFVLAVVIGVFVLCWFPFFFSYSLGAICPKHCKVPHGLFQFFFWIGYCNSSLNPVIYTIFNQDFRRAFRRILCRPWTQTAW
Method: as §1
(§6) Assay buffer was 75 mM Tris-HCl pH 7.4, 12.5 mM MgCl2, 2 mM EDTA and 1 μM GDP. Plates were counted on a Packard TopCount. The percent increase over basal binding of [^35S]-GTPγS, a measure of efficacy, was calculated as follows: 100×[[mean total sample cpm−basal cpm]÷by basal cpm]. Basal cpm was defined as the mean cpm in the absence of agonist compound minus the mean non-specific binding cpm.
as §3

[7] = target: T4, α2c adrenoreceptor (Homo sapiens, UniProt P18825); experiment: [35S]-GTPγS binding exchange, α2c CHO cell membranes; type: biochemical; settings: for stimulation of [35S]-GTPγS binding, α2c (in words): CHO cell membranes
T4 construct: expressed in transfected cells; host or cells: CHO (Chinese hamster ovary) cells, membranes
T4 sequence (P18825 1-462): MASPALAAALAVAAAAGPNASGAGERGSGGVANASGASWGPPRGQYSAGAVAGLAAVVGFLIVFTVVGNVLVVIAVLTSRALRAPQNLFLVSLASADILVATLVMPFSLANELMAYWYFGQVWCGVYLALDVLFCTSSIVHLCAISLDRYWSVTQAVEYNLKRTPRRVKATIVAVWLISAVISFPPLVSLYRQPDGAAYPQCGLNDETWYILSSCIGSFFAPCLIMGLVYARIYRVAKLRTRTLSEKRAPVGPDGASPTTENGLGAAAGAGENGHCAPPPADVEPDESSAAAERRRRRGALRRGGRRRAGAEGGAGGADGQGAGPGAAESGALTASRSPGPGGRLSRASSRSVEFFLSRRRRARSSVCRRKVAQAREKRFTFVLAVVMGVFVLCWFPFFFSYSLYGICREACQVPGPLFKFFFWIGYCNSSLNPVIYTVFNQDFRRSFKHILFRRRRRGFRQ
Method: as §1, §6, §3

[8] = target: T3, α2b adrenoreceptor; experiment: Competition binding, [3H]-UK14304, α2b CHO cell membranes; settings: for inhibition of [3H]-UK14304 binding, α2b (in words): CHO cell membranes
Method: as §1, §4, §5, §3

[9] = target: T4, α2c adrenoreceptor; experiment: Competition binding, [3H]-UK14304, α2c CHO cell membranes; settings: for inhibition of [3H]-UK14304 binding, α2c (in words): CHO cell membranes
Method: as §1, §4, §5, §3

[10] = oral, approximately 24 mg of PE, healthy volunteers; cited from earlier work
[11] = in vivo; cited from earlier work
[12] = listed as phenylephrine sulfate
[13] = at 100 μM (highest concentration evaluated)

| Compound | increase in intracellular calcium, α1a calcium assay (in words) [2] | increase in intracellular calcium, α1b calcium assay (in words) [3] | inhibition of 3H-prazosin binding, α1a (in words) [4] | inhibition of 3H-prazosin binding, α1b (in words) [5] | stimulation of [35S]-GTPγS binding, α2b (in words) [6] | stimulation of [35S]-GTPγS binding, α2c (in words) [7] | inhibition of [3H]-UK14304 binding, α2b (in words) [8] | inhibition of [3H]-UK14304 binding, α2c (in words) [9] | half-life (t1/2) / elimination half-life [11] [h] | other results |
| --- | --- | --- | --- | --- | --- | --- | --- | --- | --- | --- |
| CCOC(=O)N1CCC(=C2c3ccc(Cl)cc3CCc3cccnc32)CC1 [loratadine] | – | – | – | – | – | – | – | – | – | time to begin to elicit antihistaminic effect ([1]; exemplary conventional formulation): 1 to 3 h |
| C[C@@H]1CN([C@H]2CC[C@](C#N)(c3ccc(F)cc3)CC2)CC[C@]1(C(=O)O)c1ccccc1 [Levocabastine] | – | – | – | – | – | – | – | – | – | duration of action ([1]; in vivo): 16 to 24 h |
| CNC[C@H](O)c1cccc(O)c1 [PE, (R)-(−)-phenylephrine, reference compound] | increases intracellular calcium | increases intracellular calcium | inhibits binding | inhibits binding | stimulates [^35S]-GTPγS binding | stimulates [^35S]-GTPγS binding | inhibits [^3H]-UK14304 binding | inhibits [^3H]-UK14304 binding | – | – |
| (R)-PE sulfate | no and A very low level of activity | minimal activity; also recorded: A very low level of activity | No appreciable binding | No appreciable binding | No activity | No activity | no appreciable binding | but not; also recorded: no appreciable binding | – | increase in intracellular calcium, α1a calcium assay (in words) [2, 12]: induces minimal intracellular calcium increases; increase in intracellular calcium, α1b calcium assay (in words) [3, 12]: induces minimal intracellular calcium increases; binding / affinity, α1a receptor (in words) ([4]; concentrations up to 100 μM): no affinity; Ki ([5]; [3H]-prazosin, read-out: Ki, a1b Binding (class symbol)): > 100 µM; binding / affinity, α1b receptor (in words) ([5]; concentrations up to 100 μM): no affinity; activity in α2b [35S]-GTPγS assay (in words) ([6]; highest concentration, 100 μM): no activity; activity in α2c [35S]-GTPγS assay (in words) ([7]; highest concentration, 100 μM): no activity; Ki ([8]; [3H]-UK14304, read-out: Ki, a2b Binding (class symbol)): > 100 µM; binding / affinity, α2b receptor (in words) [8, 13]: very minimal binding; also recorded: no affinity; Ki ([9]; [3H]-UK14304, read-out: Ki, a2c Binding (class symbol)): > 100 µM; binding / affinity, α2c receptor (in words) [9, 13]: very minimal binding; also recorded: no affinity; metabolite excreted in the urine [10]: 47 % of dose |
| Clc1ccc2c(c1)CCc1cccnc1C2=C1CCNCC1 [desloratadine] | – | – | – | – | – | – | – | – | 15 to 19 | – |
| CN1CCC(=C2c3ccccc3CCc3cccnc32)CC1 [Azatadine] | – | – | – | – | – | – | – | – | 9 to 12 | – |
